Source: patent publication US12215100B2, “Anticancer compounds” (Pharma Mar, S.A., priority 2018, dated 2025)

Tests used:
Assay type in all cases: cell-based, human
[1] = tested on: MDA-MB-231; test: SRB colorimetric cytotoxicity assay, MDA-MB-231; conditions: breast adenocarcinoma
Excerpt: (§1) The aim of this assay is to evaluate the in vitro cytostatic (ability to delay or arrest tumor cell growth) or cytotoxic (ability to kill tumor cells) activity of the samples being tested.
(§2) A colorimetric assay, using sulforhodamine B (SRB) reaction has been adapted to provide a quantitative measurement of cell growth and viability (following the technique described by V. Vichai and K. Kirtikara (2006) Nature Protoc. 1, 1112-1116.)
(§3) This form of assay employs 96-well cell culture microplates. All the cell lines used in this study were obtained from the American Type Culture Collection (ATCC), unless otherwise indicated, and derive from different types of human cancer.
(§4) Cells were maintained in Dulbecco's Modified Eagle Medium (DMEM) (for A549, HT-29 and MDA-MB-231) or RPMI (for PSN-1) supplemented with 10% Fetal Bovine Serum (FBS), 2 mM L-glutamine, 100 U/mL penicillin and 100 U/mL streptomycin at 37° C., 5% CO2 and 98% humidity. For the experiments, cells were harvested from subconfluent cultures using trypsinization and resuspended in fresh medium before counting and plating.
(§5) Cells were seeded in 96 well microtiter plates, at 5×10^3 cells per well in aliquots of 150 μL, and allowed to attach to the plate surface for 18 hours (overnight) in drug free medium. After that, one control (untreated) plate of each cell line was fixed (as described below) and used for time zero reference value. […] After 72 hours treatment, the antitumor effect was measured by using the SRB methodology: Briefly, cells were washed twice with PBS, fixed for 15 min in 1% glutaraldehyde solution at room temperature, rinsed twice in PBS, and stained in 0.4% SRB solution for 30 min at room temperature. Cells were then rinsed several times with 1% acetic acid solution and air-dried at room temperature. SRB was then extracted in 10 mM trizma base solution and the absorbance measured in an automated spectrophotometric plate reader at 490 nm. Effects on cell growth and survival were estimated by applying the NCI algorithm (Boyd M R and Pauli K D. Drug Dev Res. 1995, 34, 91-104).
(§6) Using the mean±SD of triplicates, a dose-response curve was automatically generated using nonlinear regression analysis to a 4-parameter logistic curve. Three reference parameters were calculated (NCI algorithm) by automatic interpolation: GI50=compound concentration that produces 50% cell growth inhibition, as compared to control cultures; TGI=total cell growth inhibition (cytostatic effect), as compared to control cultures, and LC50=compound concentration that produces 50% net cell killing (cytotoxic effect).

[2] = tested on: A549; test: SRB colorimetric cytotoxicity assay, A549; conditions: lung carcinoma (NSCLC)
Excerpt: as §1, §2, §3, §4, §5, §6

[3] = tested on: PSN-1; test: SRB colorimetric cytotoxicity assay, PSN-1; conditions: pancreatic adenocarcinoma
Excerpt: as §1, §2, §3, §4, §5, §6

[4] = tested on: HT29; test: SRB colorimetric cytotoxicity assay, HT29; conditions: colorectal adenocarcinoma
Excerpt: as §1, §2, §3, §4, §5, §6

[5] = Homo sapiens, MDA-MB-231, 72 h, 72 hours treatment
[6] = Homo sapiens, A549, 72 h, 72 hours treatment
[7] = Homo sapiens, PSN1, 72 h, 72 hours treatment
[8] = Homo sapiens, HT-29, 72 h, 72 hours treatment
[9] = Homo sapiens, MDA-MB-231, 72 hours treatment
[10] = Homo sapiens, A549, 72 hours treatment
[11] = Homo sapiens, PSN1, 72 hours treatment
[12] = Homo sapiens, HT-29, 72 hours treatment

| Structure (SMILES) | GI50 [1, 5] | GI50 [2, 6] | GI50 [3, 7] | GI50 [4, 8] | other results |
| --- | --- | --- | --- | --- | --- |
| CCC[C@@H](NC(=O)[C@]1(C)CSC(/C(C)=N/O)=N1)c1cc(OCC)cc(=O)o1 [Compound 70] | 23.8 nM | 14.4 nM | 14.9 nM | 14.9 nM |  |
| C=CCOc1cc([C@@H](CCC)NC(=O)[C@]2(C)CSC(/C(C)=N/OCCCN)=N2)oc(=O)c1 (stereo in doubt) [Compound 153] | 4.32 nM | 3.98 nM | 3.98 nM | 3.38 nM |  |
| C=CCOc1cc([C@@H](CCC)NC(=O)[C@]2(C)CSC(C(C)=NOCCCN3CCN(C)CC3)=N2)oc(=O)c1 [Compound 163] | 16.6 nM | 16.1 nM | 16.4 nM | 15.6 nM |  |
| C=CCOc1cc([C@@H](CCC)NC(=O)[C@@]2(C)CSC(C(C)=O)=N2)oc(=O)c1 [Compound 133] | 3820 nM | 9430 nM | 5610 nM | 4590 nM |  |
| CCC[C@@H](NC(=O)[C@]1(C)CSC(/C(C)=N/O)=N1)c1cccc(=O)o1 [Compound 128] | 285 nM | 91.1 nM | 88.2 nM | 105 nM |  |
| C#CCOc1cc([C@@H](CCC)NC(=O)[C@]2(C)CSC(/C(C)=N/OCCCN)=N2)oc(=O)c1 (stereo in doubt) [Compound 156] | 2.6 nM | 1.28 nM | 2.43 nM | 2.43 nM |  |
| COc1cc([C@@H](CC(C)C)NC(=O)[C@]2(C)CSC(/C(C)=N\O)=N2)oc(=O)c1 [Compound 69a] | 4550 nM | 5060 nM | 6320 nM | 3790 nM |  |
| C=C(C)C1=N[C@](C)(C(=O)N[C@H](CCC)c2cc(OCC3CC3)cc(=O)o2)CS1 [Compound 182] | 91.5 nM | 61.8 nM | 81.6 nM | 74.2 nM |  |
| CCC[C@@H](NC(=O)[C@]1(C)CSC(/C(C)=N/O)=N1)c1cc(OCCOCCOCCOCC)cc(=O)o1 [Compound 87] | 6820 nM | 5690 nM | 7010 nM | 5500 nM |  |
| CCC[C@@H](NC(=O)[C@]1(C)CSC(/C(C)=N/O)=N1)c1cc(OCC2CC2)cc(=O)o1 [Compound 76] | 3.8 nM | 3.56 nM | 3.08 nM | 3.8 nM |  |
| C=CCOc1cc([C@@H](CCC)NC(=O)[C@]2(C)CSC(/C(C)=N/OCCCN)=N2)oc(=O)c1 (stereo in doubt) [Compound 154] |  |  |  |  | GI50 ([1]; 72 hours treatment): 6.79 nM; GI50 ([2]; 72 hours treatment): 4.79 nM; GI50 ([3]; 72 hours treatment): 7.78 nM; GI50 ([4]; 72 hours treatment): 5.59 nM |
| C=CCOc1cc([C@@H](CCC)NC(=O)[C@]2(C)CSC(/C(C)=N/OP(=O)(OCc3ccccc3)OCc3ccccc3)=N2)oc(=O)c1 [Compound 172] | 108 nM | 80.9 nM | 100 nM | 56.9 nM |  |
| CCC[C@@H](NC(=O)[C@]1(C)CSC(/C(C)=N/OCCCCO[Si](C)(C)C(C)(C)C)=N1)c1cc(OCC2CC2)cc(=O)o1 [Compound 148] |  |  |  |  | GI50 [1, 9]: 247 nM; GI50 [2, 10]: 263 nM; GI50 [3, 11]: 296 nM; GI50 [4, 12]: 59.2 nM |
| C=CCOc1cc([C@@H](CCC)NC(=O)[C@@]2(C)CSC(C(C)(OCC)OCC)=N2)oc(=O)c1 [Compound 130] | 364 nM | 214 nM | 364 nM | 206 nM |  |
| C=CCOc1cc([C@@H](CCC)NC(=O)[C@]2(C)CSC(/C(C)=N/O[C@H]3O[C@H](COC(C)=O)[C@@H](OC(C)=O)[C@H](OC(C)=O)[C@H]3OC(C)=O)=N2)oc(=O)c1 [Compound 107] | 78.6 nM | 52.9 nM | 61 nM | 52.9 nM |  |
| CCC[C@@H](NC(=O)[C@]1(C)CSC(/C(C)=N/O[C@H]2O[C@H](CO)[C@@H](O)[C@@H]3OC(C)(C)O[C@H]23)=N1)c1cc(OCC2CC2)cc(=O)o1 [Compound 180] | 417 nM | 593 nM | 529 nM | 369 nM |  |
| CCC[C@@H](NC(=O)[C@]1(C)CSC(/C(C)=N/OCCCNC(=O)OC(C)(C)C)=N1)c1cc(OC)cc(=O)o1 [Compound 97] | 1150 nM | 631 nM | 835 nM | 594 nM |  |

| Structure (SMILES) | GI50 [1, 5] | GI50 [2, 6] | GI50 [3, 7] | GI50 [4, 8] | other results |
| --- | --- | --- | --- | --- | --- |
| C=CCOc1cc([C@@H](CCC)NC(=O)[C@]2(C)CSC(/C(C)=N/OC(=O)[C@H]3O[C@@H]4OC(C)(C)O[C@@H]4[C@H]4OC(C)(C)O[C@H]43)=N2)oc(=O)c1 [Compound 170] | 5.57 nM | 3.01 nM | 2.71 nM | 2.41 nM |  |
| C=CCOc1cc([C@@H](CCC)NC(=O)[C@]2(C)CSC(/C(C)=N/O)=N2)[nH]c(=O)c1 [Compound 190] | 239 nM | 590 nM | 344 nM | 244 nM |  |
| CCC[C@@H](NC(=O)[C@]1(C)CSC(C(C)(OCC)OCC)=N1)c1cc(OCC2CC2)cc(=O)o1 [Compound 52] | 1290 nM | 1270 nM | 1770 nM | 1210 nM |  |
| C=Cc1cc([C@@H](CCC)NC(=O)[C@]2(C)CSC(C(C)=O)=N2)oc(=O)c1 [Compound 68] | 6620 nM | 11000 nM | 4690 nM | 9100 nM |  |
| CCC[C@H](NC(=O)[C@]1(C)CSC(/C(C)=N/O)=N1)c1cc(OC)cc(=O)o1 [Compound epi-1] | 3930 nM | 2880 nM | 5770 nM | 3410 nM |  |
| CCC[C@@H](NC(=O)[C@@H]1CSC(/C(C)=N/O)=N1)c1cc(OCC2CC2)cc(=O)o1 [Compound 178] | 49.1 nM | 41.7 nM | 36.8 nM | 76.1 nM |  |
| CCC[C@@H](NC(=O)[C@]1(C)CSC(/C(C)=N/OCCCN)=N1)c1cc(OCC2CC2)cc(=O)o1 (stereo in doubt) [Compound 158] | 12.1 nM | 5.43 nM | 6.27 nM | 6.06 nM |  |
| C=CCOc1cc([C@@H](CCC)NC(=O)[C@]2(C)CSC(/C(C)=N/OC(=O)COCCOCCOC)=N2)oc(=O)c1 [Compound 164] | 7.22 nM | 6.52 nM | 6.52 nM | 4.58 nM |  |
| CCCCCCCOc1cc([C@@H](CCC)NC(=O)[C@]2(C)CSC(/C(C)=N/O)=N2)oc(=O)c1 [Compound 72] | 30.1 nM | 25.8 nM | 21.5 nM | 30.1 nM |  |
| CCCCCCCOc1cc([C@@H](CCC)NC(=O)[C@]2(C)CSC(C(C)(OCC)OCC)=N2)oc(=O)c1 [Compound 48] | 2290 nM | 3430 nM | 2100 nM | 2290 nM |  |
| C=CCOc1cc([C@@H](CCC)NC(=O)[C@]2(C)CSC(/C(C)=N/O[Si](c3ccccc3)(c3ccccc3)C(C)(C)C)=N2)oc(=O)c1 [Compound 113] |  |  |  |  | GI50 [1, 9]: 8.36 nM; GI50 [2, 10]: 15.2 nM; GI50 [3, 11]: 14.7 nM; GI50 [4, 12]: 5.57 nM |
| CCC[C@@H](NC(=O)[C@]1(C)CSC(C(C)(OCC)OCC)=N1)c1cc(OCC)cc(=O)o1 [Compound 46] | 1520 nM | 2420 nM | 4620 nM | 2180 nM |  |
| CCC[C@@H](NC(=O)[C@]1(C)CSC(/C(C)=N/OC(=O)COCCOCCOC)=N1)c1cc(OC)cc(=O)o1 [Compound 95] | 44.3 nM | 20.3 nM | 33.2 nM | 40.6 nM |  |
| C=CCOc1cc([C@@H](CCC)NC(=O)[C@]2(C)CSC(/C(C)=N/OCCOCCOCCOCC)=N2)oc(=O)c1 [Compound 144] | 162 nM | 72.2 nM | 125 nM | 65.2 nM |  |
| CCC[C@@H](NC(=O)[C@]1(C)CSC(/C(C)=N/OCCOCCOCCOCC)=N1)c1cc(OCC2CC2)cc(=O)o1 [Compound 145] | 122 nM | 48.1 nM | 112 nM | 61.9 nM |  |
| COc1cc([C@@H](CCC(F)(F)F)NC(=O)[C@]2(C)CSC(/C(C)=N/O)=N2)oc(=O)c1 [Compound 140] | 459 nM | 666 nM | 643 nM | 344 nM |  |
| C#CCOc1cc([C@@H](CCC)NC(=O)[C@]2(C)CSC(C(C)=O)=N2)oc(=O)c1 [Compound 64] | 53.8 nM | 99.9 nM | 71.7 nM | 61.5 nM |  |
